Drawing on DBAASP, this text covers MIC for 6 molecules.

Values after ≈ are worked out from the molar mass of the structure shown. Values joined by “and” are separate entries in the source; they are usually repeats but may differ in a detail not shown here. Equal entries are not always repeated.

Among the test systems are Yersinia enterocolitica; Candida albicans DBFIQ 1; Candida albicans PEEC 2; Staphylococcus aureus; Escherichia coli; Escherichia coli 804; Staphylococcus aureus 75; Escherichia coli 780.
Experiment in all cases: ≥ marks a high value that may be exact or a test limit, other limits are often not marked, values filed in µg/mL are converted to µM
Test [1] relates to Staphylococcus aureus ATCC 25923.
Test [2] has as its system Pseudomonas aeruginosa ATCC 27853.
In test [3] the test system is Staphylococcus aureus BSF FBCB1313.
In test [4] the test system is Escherichia coli ATCC 35218.
The test system of test [5] is Candida tropicalis DBFIQ 3.
Test [6] deals with Enterococcus faecalis ATCC 29212.
Test [7] concerns Candida albicans ATCC 10231.
Test [8] has as its system Enterococcus faecium E007.
In test [9] the test system is Staphylococcus aureus ATCC 29231.
For test [10], the system named is Acinetobacter baumannii ATCC 7978.
Test [11] has as its system Staphylococcus aureus MW2.
Test [12] has as its system Klebsiella pneumoniae WGLW2.
For test [13], the system named is Klebsiella aerogenes ATCC 13048.
The subject of test [14] is Pseudomonas aeruginosa PA14.
Test [15] has as its system Bifidobacterium longum subsp. infantis.
The test system of test [16] is Acinetobacter baumannii 97830.
Test [17] concerns Staphylococcus epidermidis ATCC 12228.
The subject of test [18] is Acinetobacter baumannii ATCC 19606(RifR).
Test [19] relates to Klebsiella pneumoniae ATCC 700603.
The test system of test [20] is Klebsiella pneumoniae ATCC 700603(CipR).
Test [21] relates to Escherichia coli ATCC 25922(CipR).
Test [22] relates to Pseudomonas aeruginosa ATCC 27853(ImiR).
Test [23] deals with Acinetobacter baumannii ATCC 19606(CipR).
In test [24] the test system is Acinetobacter baumannii ATCC 19606(ImiR).
Test [25] deals with Escherichia coli ATCC 25922(RifR).
The subject of test [26] is Staphylococcus aureus ATCC 29213.
The subject of test [27] is Pseudomonas aeruginosa 50.
Test [28] concerns Escherichia coli ATCC 25922(GenR).
Test [29] deals with Pseudomonas aeruginosa ATCC 27853(RifR).
For test [30], the system named is Acinetobacter baumannii ATCC 19606.
The subject of test [31] is Pseudomonas aeruginosa ATCC 9027.
For test [32], the system named is Acinetobacter baumannii 9931.
Test [33] has as its system Acinetobacter baumannii ATCC 19606(GenR).
Test [34] concerns Klebsiella pneumoniae ATCC 700603(GenR).
For test [35], the system named is Escherichia coli ATCC 25922(ImiR).
Test [36] relates to Pseudomonas aeruginosa ATCC 27853(CipR).
Test [37] deals with Klebsiella pneumoniae ATCC 700603(RifR).
Test [38] has as its system Klebsiella pneumoniae ATCC 700603(ImiR).
In test [39] the test system is Staphylococcus aureus 113.
The subject of test [40] is Bacillus subtilis ATCC 23857.
In test [41] the test system is Pseudomonas aeruginosa ATCC 27853(GenR).

By MIC is commonly meant the lowest concentration found to suppress growth. A higher MIC goes with weaker potency.

Turning to `CC[C@H](C)[C@H](NC(=O)[C@H](CCC(N)=O)NC(=O)[C@H](Cc1cnc[nH]1)NC(=O)[C@@H](NC(=O)[C@@H]1CCCN1C(=O)[C@H](CC(N)=O)NC(=O)[C@H](CC(C)C)NC(=O)[C@H](CC(C)C)NC(=O)[C@H](CC(C)C)NC(=O)[C@@H](N)CCC(=O)O)[C@@H](C)O)C(=O)N[C@@H](Cc1ccc(O)cc1)C(=O)N1CCC[C@H]1C(=O)N[C@H](C(=O)N[C@H](C(=O)N[C@@H](CCC(N)=O)C(=O)N1CCC[C@H]1C(=O)N[C@@H](CC(C)C)C(=O)N[C@@H](C)C(=O)N1CCC[C@H]1C(=O)N[C@H](C(=O)O)C(C)C)[C@@H](C)O)C(C)C` [ELLLNPTHQIYPVTQPLAPV], the figures for the MIC (in test [1]; against Yersinia enterocolitica) were 89.1 µM (≈ 200 µg/mL) and at least 89.1 µM, respectively.

Turning to `CC(C)C[C@H](NC(=O)[C@@H](N)CCCCN)C(=O)N[C@@H](Cc1ccccc1)C(=O)N[C@@H](CCCCN)C(N)=O` [KLFK], the MIC is over 240 µM in test [1]; over 240 µM in [2]; at least 240 µM in test [3]; at least 240 µM in [4]; at least 480 µM in test [5]; over 240 µM in test [6]. Moreover, the MIC with Candida albicans DBFIQ 1 and in the test with Candida albicans PEEC 2 was at least 480 µM in each case.

With `CC[C@H](C)[C@H](NC(=O)[C@H](CCCCN)NC(=O)[C@H](Cc1c[nH]c2ccccc12)NC(=O)[C@@H](N)CC(C)C)C(=O)NCC(=O)N[C@@H](Cc1c[nH]c2ccccc12)C(=O)N[C@@H](CCCCN)C(=O)N[C@H](C(=O)N[C@@H](Cc1c[nH]c2ccccc12)C(=O)N[C@@H](CCCN=C(N)N)C(=O)N[C@H](C(=O)NCC(=O)O)C(C)C)[C@@H](C)CC` [LWKIGWKIWRVG], the MIC in test [7] is 83 µM (≈ 128 µg/mL); in [8], at least 83 µM; in test [9], at least 41.5 µM; in test [10], 20.8 µM (≈ 32 µg/mL); in test [11], at least 41.5 µM; in test [12], at least 41.5 µM.

Turning to `CC[C@H](C)[C@H](NC(=O)[C@H](CCCCN)NC(=O)[C@H](CCCCN)NC(=O)[C@H](Cc1c[nH]c2ccccc12)NC(=O)[C@@H](NC(=O)[C@H](CCCCN)NC(=O)[C@H](Cc1c[nH]c2ccccc12)NC(=O)[C@@H](N)CC(C)C)[C@@H](C)CC)C(=O)N[C@@H](Cc1c[nH]c2ccccc12)C(=O)N[C@@H](CCCN=C(N)N)C(=O)N[C@H](C(=O)N[C@@H](Cc1c[nH]c2ccccc12)C(=O)N[C@@H](CCCCN)C(=O)N[C@@H](CC(N)=O)C(=O)N[C@@H](Cc1c[nH]c2ccccc12)C(=O)N[C@@H](CCCN=C(N)N)C(=O)O)C(C)C` [LWKIWKKIWRVWKNWR], the MIC in [13] was 13.8 µM (≈ 32 µg/mL); in test [8], at least 55 µM; in test [9], 3.44 µM (≈ 8 µg/mL); in test [10], 27.5 µM (≈ 64 µg/mL); in test [14] it was 13.8 µM (≈ 32 µg/mL).

For the molecule `CC[C@H](C)[C@H](NC(=O)[C@@H](NC(=O)[C@@H]1CCCN1C(=O)[C@H](CC(C)C)NC(=O)[C@H](C)NC(=O)[C@H](CO)NC(=O)[C@@H](NC(=O)[C@@H](N)CCSC)[C@@H](C)O)[C@@H](C)CC)C(=O)N[C@@H](CCC(N)=O)C(=O)N[C@@H](CCCCN)C(=O)O` [MTSALPIIQK], the MIC in the test on Staphylococcus aureus was over 2720 µM; with Escherichia coli it was over 2720 µM; in test [15], at least 2720 µM.

In the case of `NCCCC[C@H](NC(=O)[C@H](CCCN=C(N)N)NC(=O)[C@H](Cc1c[nH]c2ccccc12)NC(=O)[C@H](CCCCN)NC(=O)[C@H](CCCN=C(N)N)NC(=O)[C@H](Cc1c[nH]c2ccccc12)NC(=O)[C@H](CCCCN)NC(=O)[C@H](CCCN=C(N)N)NC(=O)[C@H](Cc1c[nH]c2ccccc12)NC(=O)[C@H](CCCCN)NC(=O)[C@H](CCCN=C(N)N)NC(=O)[C@H](Cc1c[nH]c2ccccc12)NC(=O)[C@H](CCCCN)NC(=O)[C@H](CCCN=C(N)N)NC(=O)[C@@H](N)Cc1c[nH]c2ccccc12)C(N)=O` [WRKWRKWRKWRKWRK], the MIC in test [16] was 4 µM (≈ 9.48 µg/mL); in test [17], 2 µM (≈ 4.74 µg/mL); in [18], 8 µM (≈ 19 µg/mL); in [1], 4 µM and 8 µM; against Escherichia coli 804, 16 µM (≈ 37.9 µg/mL); in test [19], 8 µM (≈ 19 µg/mL). Also, the MIC in test [2] was 4 µM (≈ 9.48 µg/mL); in [20] it was 16 µM (≈ 37.9 µg/mL); in test [21] it was 8 µM (≈ 19 µg/mL); in test [22], 8 µM (≈ 19 µg/mL); in test [23] it was 8 µM (≈ 19 µg/mL); in [24], 16 µM (≈ 37.9 µg/mL). In addition, the MIC in test [25] amounted to 16 µM (≈ 37.9 µg/mL); in the test on Staphylococcus aureus 75, 4 µM (≈ 9.48 µg/mL); in test [26], 4 µM (≈ 9.48 µg/mL); in test [27], 2 µM (≈ 4.74 µg/mL); in test [28] it was 8 µM (≈ 19 µg/mL); in [29] it was 4 µM (≈ 9.48 µg/mL). Moreover, the MIC is 8 µM (≈ 19 µg/mL) in [30]; 4 µM (≈ 9.48 µg/mL) in test [31]; 8 µM (≈ 19 µg/mL) in [32]; 16 µM (≈ 37.9 µg/mL) in [33]; 16 µM (≈ 37.9 µg/mL) in test [34]; 16 µM (≈ 37.9 µg/mL) in [35]. The MIC is 4 µM (≈ 9.48 µg/mL) in [36]; 16 µM (≈ 37.9 µg/mL) in test [37]; 16 µM (≈ 37.9 µg/mL) in test [38]; 2 µM (≈ 4.74 µg/mL) in test [39]; 2 µM (≈ 4.74 µg/mL) in test [40]; at least 32 µM in test [41]. The molecule also displayed an MIC in the test with Escherichia coli 780 of 4 µM (≈ 9.48 µg/mL).
